One assay has as its target T1, TRAP1 enzyme (Homo sapiens, UniProt Q12931).
T1 construct: 150 nM Trap1 enzyme was incubated with various concentrations of the test compound
T1 sequence (Q12931 60-704): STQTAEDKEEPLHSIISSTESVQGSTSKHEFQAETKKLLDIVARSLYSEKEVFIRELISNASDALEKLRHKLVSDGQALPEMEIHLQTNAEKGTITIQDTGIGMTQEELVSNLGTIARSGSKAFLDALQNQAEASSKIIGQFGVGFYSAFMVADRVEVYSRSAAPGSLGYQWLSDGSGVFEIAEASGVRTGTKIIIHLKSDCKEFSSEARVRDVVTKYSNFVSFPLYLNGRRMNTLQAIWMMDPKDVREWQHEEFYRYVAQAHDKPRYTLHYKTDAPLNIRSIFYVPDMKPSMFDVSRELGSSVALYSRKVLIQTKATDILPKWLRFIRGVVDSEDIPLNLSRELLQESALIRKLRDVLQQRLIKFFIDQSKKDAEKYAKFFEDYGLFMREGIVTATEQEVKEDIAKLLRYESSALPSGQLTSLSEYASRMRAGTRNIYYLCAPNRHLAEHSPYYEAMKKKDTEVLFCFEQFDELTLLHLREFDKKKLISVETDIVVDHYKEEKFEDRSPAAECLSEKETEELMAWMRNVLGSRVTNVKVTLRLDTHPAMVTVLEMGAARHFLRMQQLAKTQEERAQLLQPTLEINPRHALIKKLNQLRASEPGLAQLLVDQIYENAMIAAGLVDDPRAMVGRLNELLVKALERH
The assay can be described thus: ADP Glo assay of TRAP1 ATPase activity. Type of assay: biochemical. The essentials:
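Compound (0.79–100 μM) was preincubated 30 min at 37° C with 150 nM TRAP1 in 25 mM Pipes pH 7.5, 40 mM KCl, 0.05 mM MgCl2. Reaction started with 20 μM ATP, 60 min at 37° C. ADP measured by luminescence against a standard curve; activation fitted sigmoidally for EC50 and Emax.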

In assay [1] the test system is primary rat dopaminergic TH-positive neurons. The assay can be described thus: ROS production and neurite network in primary rat dopaminergic TH-positive neurons injured with MPP+ or 6-OHDA. Type of assay: cell-based.

Structures are written as SMILES.

As usually defined, the EC50 is the concentration giving half of the maximal effect. In general, Emax refers to the size of the effect at its maximum, as opposed to the concentration needed. For `COc1ncc(NC(=O)c2csc(-c3ccccc3)n2)cc1S(=O)(=O)Nc1c(C)cccc1C` [compound 1178], on TRAP1 enzyme (concentration for half maximal activation, read-out: ADP GLO DRC: GeoMean EC50), the EC50 is less than 10 µM. The Emax at TRAP1 enzyme (maximal percent activation, read-out: ADP GLO DRC: Mean Emax) lay within 200 to 300%. For the same molecule, the “neurite network of primary rat TH+ dopaminergic neurons” value is listed as “protection of the neurite network” in assay [1] (injured with MPP+ (4 μM, 24 h), FIG. 4) and “protection of neurite network” in assay [1] (injured with MPP+ (4 μM, 48 h), FIG. 5). The “ROS production in primary rat dopaminergic neurons” value is given as “reduction in ROS” in assay [1] (injury with 6-OHDA (20 μM, 4 h), FIG. 8) and “reduction of reactive oxygen species (ROS)” in assay [1] (injury with MPP+ (4 μM, 4 h), FIG. 2). For the same molecule, the “ROS production in rat primary mesencephalic culture” value in assay [1] (injury with MPP+ (4 μM, 4 h), FIG. 3) is “reduction ROS”.
